{"source": "patent US12559474B2", "about": "“Triazine derivatives having virus replication inhibitory activity and pharmaceutical composition comprising the same” (priority 2021, dated 2026)", "note": "Several values for one entry are separate records, joined by “and”; a condition that tells them apart may be missing. Equal entries are not always repeated.", "data": [{"molecular_target": "SARS-CoV-2 3CL protease (Severe acute respiratory syndrome coronavirus 2, UniProt P0DTD1)", "assay": "biochemical", "settings": "IC50", "values": [{"smiles": "O=c1[nH]cccc1Cn1c(=O)nc(NC2CCc3[nH]ncc3C2)n(Cc2cc(F)c(F)c(F)c2)c1=O", "note": "(racemic) [Compound I-0208]", "IC50": "230 nM and 100 to 1000 nM"}, {"smiles": "COc1ccc(Nc2nc(=O)n(Cc3ccc[nH]c3=O)c(=O)n2C2CCCc3cc(F)c(F)cc32)cc1", "note": "(racemic) [Compound I-0257]", "IC50": "2900 nM"}, {"smiles": "COc1ccc(Nc2nc(=O)n(Cc3ccc[nH]c3=O)c(=O)n2C2CCc3cc(F)c(F)cc32)cc1", "note": "(racemic) [Compound I-0258]", "IC50": "3500 nM and 1000 to 10000 nM"}, {"smiles": "Cc1c[nH]nc1[C@@H]1C[C@H]1Nc1nc(=O)n(Cc2ccc[nH]c2=O)c(=O)n1Cc1cc(F)c(F)c(F)c1", "note": "(racemic) [II-0373]", "IC50": "430 nM"}, {"smiles": "O=c1[nH]cccc1Cn1c(=O)nc(Nc2ccc(F)cc2Cl)n(Cc2cc(F)c(F)c(F)c2)c1=O", "note": "[Compound I-0001]", "IC50": "100 to 1000 nM"}, {"smiles": "Cc1nc2cc(Cl)c(Nc3nc(=O)n(Cc4ccc[nH]c4=O)c(=O)n3Cc3cc(F)cc(Cl)c3)cc2n1C", "note": "[Compound I-0005]", "IC50": "< 100 nM"}, {"smiles": "Cc1nc2cc(Cl)c(Nc3nc(=O)n(Cc4ccc[nH]c4=O)c(=O)n3Cc3cc(F)c(F)cc3F)cc2n1C", "note": "[Compound I-0006]", "IC50": "< 100 nM"}, {"smiles": "Cc1nc2cc(Cl)c(Nc3nc(=O)n(Cc4ccc[nH]c4=O)c(=O)n3Cc3cc(F)c(F)c(C#N)c3)cc2n1C", "note": "[Compound I-0010]", "IC50": "< 100 nM"}, {"smiles": "O=c1[nH]cccc1Cn1c(=O)nc(Nc2ccc(O)cc2)n(Cc2cc(F)c(F)c(F)c2)c1=O", "note": "[Compound I-0027]", "IC50": "< 100 nM"}, {"smiles": "Cc1cc(Oc2ccc(Nc3nc(=O)n(Cc4ccc[nH]c4=O)c(=O)n3Cc3cc(F)c(F)c(F)c3)cc2)no1", "note": "[Compound I-0048]", "IC50": "440 nM and 100 to 1000 nM"}, {"smiles": "COc1ccc(Nc2nc(=O)n(Cc3ccc[nH]c3=O)c(=O)n2Cc2cc(F)c(F)c(F)c2)c(O)c1", "note": "[Compound I-0056]", "IC50": "< 100 nM"}, {"smiles": "CN(C)C(=O)c1ccc(Cn2c(=O)nc(Nc3cc4cn(C)nc4cc3Cl)n(Cc3cc(F)c(F)c(F)c3)c2=O)c(=O)[nH]1", "note": "[Compound I-0063]", "IC50": "< 100 nM"}, {"smiles": "COc1ccc(Nc2nc(=O)n(Cc3ccc(C(=O)N(C)C)[nH]c3=O)c(=O)n2Cc2cc(F)c(F)c(F)c2)cc1", "note": "[Compound I-0072]", "IC50": "< 100 nM"}, {"smiles": "COc1ccc(Nc2nc(=O)n(Cc3ccc(C(=O)NCCN(C)C)[nH]c3=O)c(=O)n2Cc2cc(F)c(F)c(F)c2)cc1", "note": "[Compound I-0074]", "IC50": "< 100 nM"}, {"smiles": "Cc1nc2cc(Cl)c(Nc3nc(=O)n(Cc4cc(Cl)c[nH]c4=O)c(=O)n3Cc3cc(F)c(F)c(F)c3)cc2n1C", "note": "[Compound I-0078]", "IC50": "< 100 nM"}, {"smiles": "COc1ccc(Nc2nc(=O)n(Cc3cc4ccncc4[nH]c3=O)c(=O)n2Cc2cc(F)c(F)c(F)c2)cc1", "note": "[Compound I-0080]", "IC50": "< 100 nM"}, {"smiles": "COc1ccc(Nc2nc(=O)n(Cc3c[nH]ccc3=O)c(=O)n2Cc2cc(F)c(F)c(F)c2)cc1", "note": "[Compound I-0083]", "IC50": "1800 nM and 1000 to 10000 nM"}, {"smiles": "CNC(=O)c1c[nH]c(=O)c(Cn2c(=O)nc(Nc3ccc(OC)cc3)n(Cc3cc(F)c(F)c(F)c3)c2=O)c1", "note": "[Compound I-0087]", "IC50": "< 100 nM"}, {"smiles": "COc1ccc(Nc2nc(=O)n(Cc3cc(C(N)=O)c[nH]c3=O)c(=O)n2Cc2cc(F)c(F)c(F)c2)cc1", "note": "[Compound I-0088]", "IC50": "< 100 nM"}, {"smiles": "COc1ccc(Nc2nc(=O)n(Cc3cc(C(=O)O)c[nH]c3=O)c(=O)n2Cc2cc(F)c(F)c(F)c2)cc1", "note": "[Compound I-0089]", "IC50": "< 100 nM"}, {"smiles": "COc1ccc(Nc2nc(=O)n(Cc3cc(C(=O)NCCN(C)C)c[nH]c3=O)c(=O)n2Cc2cc(F)c(F)c(F)c2)cc1", "note": "[Compound I-0092]", "IC50": "< 100 nM"}, {"smiles": "COCCOc1ccc(Nc2nc(=O)n(Cc3ccc[nH]c3=O)c(=O)n2Cc2cc(F)c(F)c(F)c2)c(Cl)c1", "note": "[Compound I-0096]", "IC50": "< 100 nM"}, {"smiles": "Cn1cnc2cc(Cl)c(Nc3nc(=O)n(Cc4ccc[nH]c4=O)c(=O)n3Cc3cc(F)c(F)c(F)c3)cc2c1=O", "note": "[Compound I-0097]", "IC50": "< 100 nM"}, {"smiles": "O=c1[nH]cccc1Cn1c(=O)nc(Nc2cc3nccnc3cc2Cl)n(Cc2cc(F)c(F)c(F)c2)c1=O", "note": "[Compound I-0098]", "IC50": "< 100 nM"}, {"smiles": "COc1ccc(Nc2nc(=O)n(Cc3c[nH]c(=O)[nH]c3=O)c(=O)n2Cc2cc(F)c(F)c(F)c2)cc1", "note": "[Compound I-0099]", "IC50": "< 100 nM"}, {"smiles": "COc1ccc(Nc2nc(=O)n(Cc3cc(=O)[nH][nH]c3=O)c(=O)n2Cc2cc(F)c(F)c(F)c2)cc1", "note": "[Compound I-0102]", "IC50": "850 nM and 100 to 1000 nM"}, {"smiles": "COc1ccc(Nc2nc(=O)n(Cc3c[nH]c(=S)[nH]c3=O)c(=O)n2Cc2cc(F)c(F)c(F)c2)cc1", "note": "[Compound I-0103]", "IC50": "< 100 nM"}, {"smiles": "COc1ccc(Nc2nc(=O)n(Cc3cc(-c4cn(C)cn4)c[nH]c3=O)c(=O)n2Cc2cc(F)c(F)c(F)c2)cc1", "note": "[Compound I-0105]", "IC50": "< 100 nM"}, {"smiles": "COc1ccc(Nc2nc(=O)n(Cc3nc(Br)c[nH]c3=O)c(=O)n2Cc2cc(F)c(F)c(F)c2)cc1", "note": "[Compound I-0106]", "IC50": "1900 nM and 1000 to 10000 nM"}, {"smiles": "Cn1cc2cc(Nc3nc(=O)n(Cc4ccc[nH]c4=O)c(=O)n3Cc3cc(F)c(F)c(F)c3)ccc2n1", "note": "[Compound I-0143]", "IC50": "< 100 nM"}, {"smiles": "Cn1cnc2ccc(Nc3nc(=O)n(Cc4ccc[nH]c4=O)c(=O)n3Cc3cc(F)c(F)c(F)c3)cc21", "note": "[Compound I-0144]", "IC50": "< 100 nM"}, {"smiles": "CNC(=O)c1ccc(Nc2nc(=O)n(Cc3ccc[nH]c3=O)c(=O)n2Cc2cc(F)c(F)c(F)c2)cc1", "note": "[Compound I-0149]", "IC50": "3500 nM and 1000 to 10000 nM"}, {"smiles": "CS(=O)(=O)Nc1ccc(Nc2nc(=O)n(Cc3ccc[nH]c3=O)c(=O)n2Cc2cc(F)c(F)c(F)c2)cc1", "note": "[Compound I-0151]", "IC50": "970 nM and 100 to 1000 nM"}, {"smiles": "O=c1[nH]cccc1Cn1c(=O)nc(Nc2ccc(-c3cc[nH]n3)cc2)n(Cc2cc(F)c(F)c(F)c2)c1=O", "note": "[Compound I-0154]", "IC50": "1300 nM and 1000 to 10000 nM"}, {"smiles": "O=c1[nH]cccc1Cn1c(=O)nc(NC2CCCC2)n(Cc2cc(F)c(F)c(F)c2)c1=O", "note": "[Compound I-0204]", "IC50": "610 nM and 100 to 1000 nM"}, {"smiles": "CO[C@H]1C[C@H](Nc2nc(=O)n(Cc3ccc[nH]c3=O)c(=O)n2Cc2cc(F)c(F)c(F)c2)C1", "note": "[Compound I-0207]", "IC50": "1900 nM and 1000 to 10000 nM"}, {"smiles": "COc1ccc(Nc2nc(=O)n(Cc3ccc[nH]c3=O)c(=O)n2Cc2nc3ccccc3s2)cc1", "note": "[Compound I-0223]", "IC50": "4300 nM and 1000 to 10000 nM"}, {"smiles": "COc1ccc(Nc2nc(=O)n(Cc3ccc[nH]c3=O)c(=O)n2Cc2cc(F)cc(C#N)c2)cc1", "note": "[Compound I-0234]", "IC50": "< 100 nM"}, {"smiles": "Cn1cc(Nc2nc(=O)n(Cc3ccc[nH]c3=O)c(=O)n2Cc2cc(F)c(F)c(F)c2)c(Cl)cc1=O", "note": "[Compound I-0244]", "IC50": "< 100 nM"}, {"smiles": "O=c1cc(Cl)c(Nc2nc(=O)n(Cc3ccc[nH]c3=O)c(=O)n2Cc2cc(F)c(F)c(F)c2)c[nH]1", "note": "[Compound I-0246]", "IC50": "< 100 nM"}, {"smiles": "COc1ccc(Nc2nc(=O)n(Cc3cc(-c4cnn(C)c4)c[nH]c3=O)c(=O)n2Cc2cc(F)c(F)c(F)c2)cc1", "note": "[Compound I-0259]", "IC50": "< 100 nM"}, {"smiles": "Cc1nc2cc(Cl)c(Nc3nc(=O)n(Cc4ccc[nH]c4=O)c(=O)n3Cc3cc(F)c(F)c(F)c3F)cc2n1C", "note": "[Compound I-0265]", "IC50": "< 100 nM"}, {"smiles": "Cc1nc2cc(Cl)c(Nc3nc(=O)n(Cc4ccc[nH]c4=O)c(=O)n3Cc3ccc(F)c(C#N)c3)cc2n1C", "note": "[Compound I-0266]", "IC50": "< 100 nM"}, {"smiles": "Cn1cc2cc(Nc3nc(=O)n(Cc4ccc[nH]c4=O)c(=O)n3Cc3cc(F)cc(C#N)c3)c(Cl)cc2n1", "note": "[Compound I-0268]", "IC50": "< 100 nM"}, {"smiles": "Cn1cc2cc(Nc3nc(=O)n(Cc4cc(F)c[nH]c4=O)c(=O)n3Cc3ccc(F)c(C#N)c3)c(Cl)cc2n1", "note": "[Compound I-0270]", "IC50": "< 100 nM"}, {"smiles": "CS(=O)(=O)CCCn1cc2cc(Nc3nc(=O)n(Cc4ccc[nH]c4=O)c(=O)n3Cc3cc(F)c(F)c(F)c3)c(Cl)cc2n1", "note": "[Compound I-0287]", "IC50": "< 100 nM"}]}]}
